Measurements published in patent US10703717B2, “Water-soluble isatin derivative, and manufacturing method and application thereof” (TIANJIN UNIVERSITY OF SCIENCE & TECHNOLOGY, priority 2016, dated 2020).

Assays:
K562 cells = test: In-vitro anti-tumor activity, MTT assay, human leukemia K562 cells; assay type: cell-based; conditions: 48 h
Method: (§1) Anti-Tumor Activity Determination Method
(§2) Preparation of PBS buffer: Sodium chloride 8 g, potassium chloride 0.2 g, disodium hydrogen phosphate dodecahydrate 2.9 g, potassium dihydrogen phosphate 0.2 g and purified water 800 mL were placed into a 1000 mL conical flask, the mixture was stirred and dissolved to a volume of 1000 mL. After autoclaving, PBS buffer was stored in a refrigerator at 4° C.
(§3) Preparation of MTT solution: 0.5 g MTT dry powder was dissolved in 100 mL PBS buffer. After sterilizing by filtration through a […] filter, it was stored in a refrigerator at −12° C.
(§4) Three kinds of tumor cells were used in the antitumor activity assay of the present invention: human liver cancer cells (HepG2), human leukemia cells (K562) and human colon cancer cells (HCT116).
Activity test using human leukemia K562 cells
The human leukemia cells (K562) were grown in RPMI1640 medium supplemented with 10% fetal bovine serum, 1% penicillin/streptomycin and were cultured in an incubator of 5% CO2 at 37° C.
The method comprises the following steps:
(1) After counting the cells with a hemocytometer, dilute it to a density of 5×10^4 cells/mL with RPMI1640 medium;
(2) 100 μl cell suspension was added in each well of 96-well plates and incubated at 37° C. for 2 h;
(§5) (3) The compound to be tested was diluted to five concentrations: 2 mM, 200 μM, 20 μM, 2 μM, 0.2 μM. Then, 0.5 μL compound of different concentrations was added to the well and incubated at 37° C. for another 48 h;
(§6) (4) MTT (5 mg/ml) was added to each well and the plate was further incubated for 4 h at 37° C.;
(5) Dissolving the cells with DMSO, and the OD values were measured at 570 nm and 630 nm by a microplate reader;
(6) Process the data by calculating the IC50 value based on the OD values.

HepG2 cells = test: In-vitro anti-tumor activity, MTT assay, human liver cancer HepG2 cells; assay type: cell-based; conditions: 48 h
Method: as §1
(§7) Preparation of low glucose DMEM medium: MEM medium (Hyclone) was purchased with low glucose, 500 mL per bottle, 10% fetal bovine serum and 1% streptomycin solution were added in it. That is, 50 mL of fetal bovine serum and 5 mL of streptomycin were added to each flask of the medium. The preparation of the medium was carried out in an ultra-clean workbench and stored in a refrigerator at 4° C.
as §2, §3, §4
Activity Test Using Human Liver Cancer HepG2 Cells
The human liver cancer cells (HepG2) were grown in DMEM medium supplemented with 10% fetal bovine serum, 1% penicillin/streptomycin and were cultured in an incubator of 5% CO2 at 37° C. The method comprises the following steps:
(1) After counting the cells with a hemocytometer, dilute it to a density of 5×10^4 cells/mL with low glucose DMEM medium;
(§8) (2) 100 μl cell suspension was added in each well of 96-well plates and incubated at 37° C. for 24 h;
as §5, §6
(§9) (5) Dissolving the cells with DMSO, and the OD values were measured at 490 nm and 630 nm by a microplate reader; […]

Water solubility = assay type: physicochemical; conditions: for water solubility, in words: summary of table 1
[1] = system: tumor cells (HepG2, K562, HCT116); test: In-vitro anti-tumor activity, summary in words over the three tumor cell lines; assay type: cell-based, human; conditions: summary of table 1; for cytotoxic / anti-tumor activity, in words: compared with precursor/parent compound
Description: as §1, §4

HCT116 cells = test: In-vitro anti-tumor activity, MTT assay, human colon cancer HCT116 cells; assay type: cell-based; conditions: HCT-116, 48 h
Method: as §1
as §7, with “DMEM/F-12” for “low glucose DMEM”, “MEM/F-12” for “MEM”, “purchased,” for “purchased with low glucose,”
as §2, §3, §4
Activity test using human colon cancer HCT116 cells
The human colon cancer cells (HCT116) were grown in DMEM/F-12 medium supplemented with 10% fetal bovine serum, 1% penicillin/streptomycin and were cultured in an incubator of 5% CO2 at 37° C. The method comprises the following steps:
(1) After counting the cells with a hemocytometer, dilute it to a density of 5×10^4 cells/mL with DMEM/F-12 medium;
as §8
(3) The compound to be tested was diluted to five concentrations: 2 mM, 200 μM, 20 μM, 2 μM, 0.2 μM. Then, 0.5 μL compound of different concentrations was added to each well and incubated at 37° C. for another 48 h;
(4) MTT (5 mg/ml) was added to the well and the plate was further incubated for 4 h at 37° C.;
as §9

SMILES	IC50 (K562 cells)	IC50 (HepG2 cells)	Water solubility (Water solubility)	water solubility, in words (Water solubility)	activity compared with positive reference substance camptothecin [1]	cytotoxic / anti-tumor activity, in words [1]	IC50 (HCT116 cells)
COC(=O)/C=C/c1ccc2c(c1)C(=O)C(=O)N2Cc1ccc(O)c(CN(C)C)c1 [Compound 2]	< 10 nM	1000 to 10000 nM	>10 g/100 g	obviously improved	superior	greatly improved	< 10 nM
COc1ccc(CN2C(=O)C(=O)c3cc(-c4ccc(O)c(CN(C)C)c4)ccc32)cc1 [Compound 1]	1000 to 10000 nM	1000 to 10000 nM	>10 g/100 g	obviously improved		still retains certain cytotoxic activity	1000 to 10000 nM
CC[C@@]1(O)C(=O)OCc2c1cc1n(c2=O)Cc2cc3ccccc3nc2-1 [CPT, camptothecin, reference compound]	100 to 1000 nM	100 to 1000 nM	insoluble				100 to 1000 nM
